We go through twelve compounds from US20260284066A1, “TYK2 INHIBITORS AND COMPOSITIONS AND METHODS THEREOF” (LYNK PHARMACEUTICALS CO. LTD., priority 2023, published 2026).

For one data set, the system named is pSTAT1. Description: Phosphorylation inhibition of STAT in human whole blood (IFN-alpha stimulated, flow cytometry). It counts as cell-based. The conditions noted are these: T-cell, CD3+ T cells, read-out: pSTAT1 inhibition in hWB (IC50). How it is done:
Phosphorylation Inhibition of STAT in Human Whole Blood Testing: The inhibitory potential of test articles in human whole blood assay was evaluated by the method of flow cytometry. IFN-alpha will activate JAK1 and TYK2 kinase in T cells by binding to IFN receptors, and then lead to phosphorylation of STAT1 and STAT2. The phosphorylated STAT1 enter nuclear and promote transcription and expression of IFN-gamma. To evaluate the efficacy of TYK2i in T cells, freshly collected human whole blood will be stimulated with certain unit of human IFN-alpha (Universal Type I IFN (1MU), R&D, 11200-2) for 20 mins in incubator. After stimulation, fix cells with PhosflowTM Fix Buffer I (BD, 557870), and then collect fixed cells by centrifugation (500 g, 8 min). Wash cells once with pre-cooled PBS, and then permeabilize cells with cold Perm Buffer III buffer (BD, 558050) for 45 mins on ice. Collect cells by centrifugation (600 g, 8 min) and washed twice with cold PBS. Stain cells with anti-human CD3(FITC Mouse Anti-Human CD3, BD, 555332) and anti-pSTAT1_Y701 (Alexa Fluor 647 Mouse Anti-Stat1 ([…]), BD, 612597) antibodies. Detect pSTAT1 by flow cytometry (CytoFlex S) and analyze data with FlowJo and GraphPad Prism 8 software. IC50 values of test articles were determined using 4-parameter logistic equation.

In another data set the target is T1, JAK1-JH2 domain (Homo sapiens, UniProt P23458).
T1 construct: JAK1-JH2 domain or TYK2-JH2 domain enzyme
T1 sequence (P23458 583-855 limits assumed): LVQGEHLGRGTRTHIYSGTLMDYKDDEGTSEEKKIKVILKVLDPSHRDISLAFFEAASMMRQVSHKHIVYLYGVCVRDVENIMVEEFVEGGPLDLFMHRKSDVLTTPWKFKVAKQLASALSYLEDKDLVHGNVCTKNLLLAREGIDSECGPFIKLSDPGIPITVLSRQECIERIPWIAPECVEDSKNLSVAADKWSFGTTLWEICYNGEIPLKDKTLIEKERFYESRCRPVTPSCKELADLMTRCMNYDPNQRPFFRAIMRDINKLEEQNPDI
Description: Binding activity test for JAK1 JH2 domain (Tb-antibody/tracer FRET). Particulars: read-out: JAK1 JH2 Binding IC50. How it is done:
Binding Activity test for JH2 domain of JAK and TYK2
75 nL DMSO for high control and low control.
For low control, add 5 μL/well assay buffer. […] After enzyme system prepared, add 5 μL of Tb-antibody solution into each wells of assay plate. […] After Tb-antibody added, also add 5 μL of tracer into the assay plate. […] Incubate for 60 mins at 25° C. firstly and then continue to incubate the plate at 4° C. overnight. Read by envision in FRET mode. The Luminescence value was recorded by a multi-label reader Envision (PerkinElmer). Inhibition Rate was calculated relative to vehicle (DMSO) treated control wells using following formula:
wherein • RLU_compound=the relative light unit of cells treated with test compounds • RLU_low control=the relative light unit of medium with DMSO only • RLU_high control=the relative light unit of cells treated with DMSO only

A further data set has as its target T2, TYK2-JH2 domain (Homo sapiens, UniProt P29597).
T2 construct: JAK1-JH2 domain or TYK2-JH2 domain enzyme
Description: Binding activity test for TYK2 JH2 domain (Tb-antibody/tracer FRET). Particulars: for JAK1/TYK2 selectivity: ratio of JAK1 JH2 to TYK2 JH2 binding IC50; for pIC50: read-out: TYK2 JH2 Binding IC50.

Data set [1] can be described thus: Microsomal metabolic stability assay. In kind it is in vitro ADME, human. Particulars: for microsomal CLint at 1 µM / half-life at 1 µM: human, liver microsomes, pH 7.4, human liver microsomes 0.5 mg/mL; for microsomal CLint at 1 µM: read-out: Human LM Clint; for half-life at 1 µM: read-out: Human LM T½. The procedure:
Microsomal Metabolic Stability Assay
Microsomes were pre-incubated with test compound or control compounds for 5 min at 37° C. in 100 mM potassium phosphate buffer, pH 7.4, 1.0 mM EDTA. The reaction was initiated by addition of 15 μL of the NADPH regenerating system to 30 μL of each incubation mixture per time point. The final incubation condition was composed of 0.5 mg/mL microsomal protein, 1 μM test article/positive control, 2 mM NADPH. The 0-minute samples were prepared by addition of a 30 μL aliquot of each incubation mixture to 135 μL quench reagent to precipitate proteins. And then a 15 μL aliquot of the NADPH regenerating system was added. At 5, 15, 30 and 45 minutes, the reaction will be stopped by the addition of cold acetonitrile solution containing internal standard. The samples taken at all time points were centrifuged at 5000×g for 15 minutes. 50 μL of supernatant are taken into 96-well assay plates pre-added with 50 μL ultrapure water, and then analyzed by LC/MS/MS.
Concentrations of test articles, control compounds in the samples were determined by using LC/MS/MS method. Plotting of the chromatograms and peak area integrations are carried out by Analyst (AB Sciex).
In the determination of the in vitro elimination constant (ke) of the control compounds, the analyte/internal standard peak area ratios will be converted to percentage remaining (% Remaining) with the following equation:
The CLint of microsomes was calculated using the formula: CLint (mic)=0.693/T1/2/mg microsome protein per mL. The slope was measured by the natural logarithm of the percentage of the residual compound and time, T1/2 was calculated according to the following formula.

A further data set is described as follows: Kinetic solubility. It counts as physicochemical. The conditions noted are these: 100 mM pH 7.4 phosphate buffer, 1% DMSO, room temperature, read-out: Kinetics Solubility_PBS7.4. How it is done: Aliquots of 8 μL of reference and test compound stock solutions (10 mM/5 mM) are added into 792 μL of 100 mM pH 7.4 phosphate buffer. The final DMSO concentration is 1%. Sample tubes are shaken for 2 hours at 1000 rpm at room temperature. Samples are centrifuged at 12000 rpm for 10 min to precipitate un-dissolved particles. And transfer the supernatants to a new tube or plate. Add 5 μL of samples (no diluted, 10 times diluted and 100 times diluted) and standard curve samples to 95 μL of ACN containing IS for LC-MS/MS analysis.

Setting [2] is: human liver microsomes 0.5 mg/mL, 1 μM.

pIC50: −log10 of the molar value. ≈ marks a conversion by molar mass, not a printed value. Like-named read-outs stand apart in the source and are kept apart here.

By pIC50 is commonly meant −log10 of the IC50, conventionally taken in molar units.

T2 sequence (P29597 589-875 limits assumed): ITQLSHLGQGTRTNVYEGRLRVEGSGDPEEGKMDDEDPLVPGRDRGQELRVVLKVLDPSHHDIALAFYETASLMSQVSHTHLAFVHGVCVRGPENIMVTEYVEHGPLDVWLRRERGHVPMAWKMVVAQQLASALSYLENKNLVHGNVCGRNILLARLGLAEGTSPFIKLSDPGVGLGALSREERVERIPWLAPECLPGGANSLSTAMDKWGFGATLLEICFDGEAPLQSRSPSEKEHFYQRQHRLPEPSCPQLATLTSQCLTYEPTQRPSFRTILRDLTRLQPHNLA

Turning to `[2H]C([2H])([2H])NC(=O)c1cnc(NC(=O)C2CC2)cc1Nc1ccc2ccn(C([2H])([2H])[2H])c2c1OC` [Example 15, 6-(Cyclopropanecarboxamido)-4-((7-methoxy-1-(methyl-d3)-1H-indol-6-yl)amino)-N-(methyl-d3)nicotinamide], the pIC50 with pSTAT1 was 6.69; at JAK1-JH2 domain, 8.83; on TYK2-JH2 domain, 10.03. Further, the JAK1/TYK2 selectivity on TYK2-JH2 domain is 15.64.
In the case of `[2H]C([2H])([2H])NC(=O)c1cnc(NC(=O)C2CC2)cc1Nc1ncc2ncn(CC(C)(F)F)c2c1OC` [Example 14, 6-(Cyclopropanecarboxamido)-4-((1-(2,2-difluoropropyl)-7-methoxy-1H-imidazo[4,5-c]pyridin-6-yl)amino)-N-(methyl-d3)nicotinamide], at JAK1-JH2 domain, the pIC50 was 7.41. For the same compound, on TYK2-JH2 domain, the JAK1/TYK2 selectivity amounted to 217.86 and the negative-log IC50 (pIC50) was 9.75. In addition, in data set [1], the microsomal CLint at 1 µM is 39.2 µL/min/mg and the half-life at 1 µM stood at 0.589 h. The solubility kinetic at 2 h in the data set “Kinetic solubility” (aqueous buffer) worked out at 16.9 µM (≈ 7.82 µg/mL).
`[2H]C([2H])([2H])NC(=O)c1cnc(NC(=O)C2CC2)cc1Nc1ncc2cnn(C(C)C(F)(F)F)c2c1OC` (single isomer, unassigned) [Example 3B, (S*)-6-(Cyclopropanecarboxamido)-4-((7-methoxy-1-(1,1,1-trifluoropropan-2-yl)-1H-pyrazolo[4,3-c]pyridin-6-yl)amino)-N-(methyl-d3)nicotinamide]: on JAK1-JH2 domain, the pIC50 is 6.94. At TYK2-JH2 domain, the JAK1/TYK2 selectivity was found to be 141.36 and the pIC50 is 9.09. In data set [1] (setting [2]), the “Human LM Clint” value came out at 5.33 µL/min/mg. Further, the half-life at 1 µM in data set [1] came out at 4.33 h. The solubility kinetic at 2 h in “Kinetic solubility” (aqueous buffer) was determined as 12.8 µM (≈ 6.13 µg/mL).
Take `[2H]C([2H])([2H])NC(=O)c1cnc(Nc2cc(CN3CCOCC3)n(C)n2)cc1Nc1ccc2cnn(CC#N)c2c1OC` [Example 12, 4-((1-(Cyanomethyl)-7-methoxy-1H-indazol-6-yl)amino)-N-(methyl-d3)-6-((1-methyl-5-(morpholinomethyl)-1H-pyrazol-3-yl)amino)nicotinamide]: the pIC50 at JAK1-JH2 domain was 8.79; on TYK2-JH2 domain, 9.72. Also, the JAK1/TYK2 selectivity at TYK2-JH2 domain amounted to 8.55. In “Kinetic solubility” (aqueous buffer), the solubility kinetic at 2 h came out at 7.21 µM (≈ 3.85 µg/mL).
`CNC(=O)c1cnc(NC(=O)C2CC2)cc1Nc1ncn2ncc(C#N)c2c1OC` [Example 20, 4-((3-Cyano-4-methoxypyrazolo[1,5-c]pyrimidin-5-yl)amino)-6-(cyclopropanecarboxamido)-N-methylnicotinamide]: the pIC50 in the data set on pSTAT1 is 6.78. At JAK1-JH2 domain, the pIC50 was 7.71. Moreover, on TYK2-JH2 domain, the JAK1/TYK2 selectivity amounted to 63.62 and the pIC50 is 9.52. In data set [1], the microsomal CLint at 1 µM stood at 39.2 µL/min/mg and the half-life at 1 µM amounted to 0.589 h.
On to `[2H]C([2H])([2H])NC(=O)c1cnc(NC(=O)C2CC2)cc1Nc1ncc2ccn(CC)c2c1OC` [Example 18, 6-(Cyclopropanecarboxamido)-4-((1-ethyl-7-methoxy-1H-pyrrolo[3,2-c]pyridin-6-yl)amino)-N-(methyl-d3)nicotinamide], for which the pIC50 at JAK1-JH2 domain was 8.39; at TYK2-JH2 domain, 10.31. Moreover, the JAK1/TYK2 selectivity at TYK2-JH2 domain was 83.55. In addition, the solubility kinetic at 2 h in “Kinetic solubility” (aqueous buffer) was found to be 41.5 µM (≈ 17.1 µg/mL).
The like results for `[2H]C([2H])([2H])NC(=O)c1cnc(NC(=O)C2CC2)cc1Nc1ccc2ncn(CC(F)(F)F)c2c1OC` [Example 27, 6-(Cyclopropanecarboxamido)-4-((7-methoxy-1-(2,2,2-trifluoroethyl)-1H-benzo[d]imidazol-6-yl)amino)-N-(methyl-d3)nicotinamide] were, in that order, under 6.53, 8.56, over 107.8 and 44.2 µM (≈ 20.6 µg/mL).
Take `[2H]C([2H])([2H])NC(=O)c1cnc(Nc2ccn(C)n2)cc1Nc1ncc2cnn(CC(C)(F)F)c2c1OC` [Example 22, 4-((1-(2,2-Difluoropropyl)-7-methoxy-1H-pyrazolo[4,3-c]pyridin-6-yl)amino)-N-(methyl-d3)-6-((1-methyl-1H-pyrazol-3-yl)amino)nicotinamide]: the pIC50 at JAK1-JH2 domain was 6.53. On TYK2-JH2 domain, the JAK1/TYK2 selectivity stood at 113.31 and the pIC50 was 8.58. For the same compound, in data set [1], the microsomal CLint at 1 µM worked out at 9.25 µL/min/mg and the half-life at 1 µM came out at 2.5 h. In addition, the solubility kinetic at 2 h in “Kinetic solubility” (aqueous buffer) was 19.8 µM (≈ 9.39 µg/mL).
On to `[2H]C([2H])([2H])NC(=O)c1cnc(NC(=O)C2CC2)nc1Nc1ncc2cnn(CC(C)(F)F)c2c1OC` [Example 28, 2-(Cyclopropanecarboxamido)-4-((1-(2,2-difluoropropyl)-7-methoxy-1H-pyrazolo[4,3-c]pyridin-6-yl)amino)-N-(methyl-d3)pyrimidine-5-carboxamide], for which the pIC50 at JAK1-JH2 domain and at TYK2-JH2 domain was under 6.53 each time. Besides, the solubility kinetic at 2 h in “Kinetic solubility” (aqueous buffer) was found to be 20.6 µM (≈ 9.55 µg/mL).
Take `[2H]C([2H])([2H])NC(=O)c1cnc(NC(=O)[C@H]2C[C@H]2F)cc1Nc1ncc2cnn(CC(F)(F)F)c2c1OC` [Example 10, 6-((1R,2R)-2-fluorocyclopropane-1-carboxamido)-4-((7-methoxy-1-(2,2,2-trifluoroethyl)-1H-pyrazolo[4,3-c]pyridin-6-yl)amino)-N-(methyl-d3)nicotinamide]: the pIC50 on JAK1-JH2 domain was 7.45. On TYK2-JH2 domain, the JAK1/TYK2 selectivity is listed as 86.04 and the pIC50 is 9.39. In data set [1], the microsomal CLint at 1 µM came to 4.49 µL/min/mg and the half-life at 1 µM stood at 5.15 h. For the same compound, the solubility kinetic at 2 h in “Kinetic solubility” (aqueous buffer) turned out to be 29 µM (≈ 14 µg/mL).
“(R*)-6(Cyclopropanecarboxamido)-4((7-methoxy-1-(1,1,1-trifuoropropan-2-yl)-1H-pyrazolo[4,3-c]pyridin-6-yl)amino)-N-(methyl-d3)nicotinamide [Example 3A]”: the pIC50 on JAK1-JH2 domain is under 6.53. On TYK2-JH2 domain, the JAK1/TYK2 selectivity is on record as over 34.94 and the pIC50 was 8.07. In data set [1] (setting [2]), the “Human LM Clint” value turned out to be 6.20 µL/min/mg and the “Human LM T½” value was determined as 3.7278 h. Further, in the data set “Kinetic solubility”, the solubility kinetic at 2 h is given as 19.05 µM.
`[2H]C([2H])([2H])NC(=O)c1cnc(NC(=O)C2CC2)cc1Nc1cc(F)c2ccn(CC)c2c1OC` [Example 16, 6-(Cyclopropanecarboxamido)-4-((1-ethyl-4-fluoro-7-methoxy-1H-indol-6-yl)amino)-N-(methyl-d3)nicotinamide]: the figures for the pIC50 in the data set with pSTAT1, at JAK1-JH2 domain and at TYK2-JH2 domain were 6.66, 8.24 and 10.08, respectively. In addition, the JAK1/TYK2 selectivity on TYK2-JH2 domain was found to be 70.10.
